Results taken from ChEMBL document CHEMBL1201862, “PubChem BioAssay data set” (2004).
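Assay format: 96-well plates, 48-hour exposure. Abbreviation: GI50, concentration required for 50% inhibition of growth.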 Active and inactive are the calls of the source. No stated cut-off is given here; in the data, active = GI50 up to about 1.1 µM and inactive = higher.

Key:
Test in all cases: NCI anticancer screen, dose series, 48 h
A549 = test system: A549
HL-60 = test system: HL-60
OVCAR-5 = test system: OVCAR-5
PC-3 = test system: PC-3
M14 = test system: M14
HCT-116 = test system: HCT-116
RPMI-8226 = test system: RPMI-8226
UACC-257 = test system: UACC-257
SK-MEL-5 = test system: SK-MEL-5
EKVX = test system: EKVX
NCI/ADR-RES = test system: NCI/ADR-RES
UACC-62 = test system: UACC-62
CCRF-CEM = test system: CCRF-CEM
KM12 = test system: KM12
SNB-75 = test system: SNB-75
RXF 393 = test system: RXF 393
SN12C = test system: SN12C
OVCAR-3 = test system: OVCAR-3
HCC 2998 = test system: HCC 2998
A498 = test system: A498

Structure (SMILES)	GI50 (A549)	GI50 (HL-60)	GI50 (OVCAR-5)	GI50 (PC-3)	GI50 (M14)	GI50 (HCT-116)	GI50 (RPMI-8226)	GI50 (UACC-257)	GI50 (SK-MEL-5)	GI50 (EKVX)	GI50 (NCI/ADR-RES)	GI50 (UACC-62)	GI50 (CCRF-CEM)	GI50 (KM12)	GI50 (SNB-75)	GI50 (RXF 393)	GI50 (SN12C)	GI50 (OVCAR-3)	GI50 (HCC 2998)	GI50 (A498)
CCCCCCC(O)C(=O)OC1C2C(CC1(C)C)C(O)C13OC1C(O)C1(CO1)[C@@]23C (stereo partly specified)	28.1 µM (inactive)	> 100 µM (inactive)	> 100 µM (inactive)	17.3 µM (inactive)	40.6 µM (inactive)	47.4 µM (inactive)	40.9 µM (inactive)	42.3 µM (inactive)	13.4 µM (inactive)	54.5 µM (inactive)	> 100 µM (inactive)	26 µM (inactive)	27.5 µM (inactive)	47.6 µM (inactive)	8.83 µM (inactive)	23 µM (inactive)	54.7 µM (inactive)	32.1 µM (inactive)	–	–
CCOC(=O)C(NC(=O)CC)(Nc1ccc(S(=O)(=O)Nc2onc(C)c2C)cc1)C(F)(F)F (stereo unspecified)	> 100 µM (inactive)	> 100 µM (inactive)	> 100 µM (inactive)	> 100 µM (inactive)	> 100 µM (inactive)	> 100 µM (inactive)	> 100 µM (inactive)	> 100 µM (inactive)	> 100 µM (inactive)	> 100 µM (inactive)	> 100 µM (inactive)	> 100 µM (inactive)	> 100 µM (inactive)	> 100 µM (inactive)	14.9 µM (inactive)	> 100 µM (inactive)	> 100 µM (inactive)	> 100 µM (inactive)	> 100 µM (inactive)	–
CC(=O)O[C@H]1CC2C(C3CCC(C(C)CCC(N)=O)[C@]31C)[C@H](OC(C)=O)C[C@@H]1CC3(CC[C@]21C)OOC1(CC[C@]2(C)C4C[C@H](OC(C)=O)[C@]5(C)C(C(C)CCC(N)=O)CCC5C4[C@H](OC(C)=O)C[C@@H]2C1)OO3 (stereo partly specified)	1.43 µM (inactive)	1.45 µM (inactive)	1.69 µM (inactive)	1.41 µM (inactive)	1.95 µM (inactive)	1.33 µM (inactive)	1.22 µM (inactive)	1.49 µM (inactive)	1.33 µM (inactive)	1.67 µM (inactive)	2.09 µM (inactive)	–	–	1.66 µM (inactive)	1.56 µM (inactive)	1.61 µM (inactive)	1.79 µM (inactive)	1.42 µM (inactive)	0.966 µM (active)	–
CC(C)OCC(O)COc1ccc2ccc(=O)oc2c1 (stereo unspecified)	> 100 µM (inactive)	> 100 µM (inactive)	> 100 µM (inactive)	> 100 µM (inactive)	> 100 µM (inactive)	> 100 µM (inactive)	> 100 µM (inactive)	> 100 µM (inactive)	> 100 µM (inactive)	> 100 µM (inactive)	> 100 µM (inactive)	> 100 µM (inactive)	> 100 µM (inactive)	> 100 µM (inactive)	> 100 µM (inactive)	–	> 100 µM (inactive)	> 100 µM (inactive)	> 100 µM (inactive)	–
C=C1CC(COc2ccc3c(C)c(Cl)c(=O)oc3c2)(c2ccccc2)OC1=O (stereo unspecified)	11.9 µM (inactive)	0.277 µM (active)	12.4 µM (inactive)	1.9 µM (inactive)	1.04 µM (active)	1.01 µM (active)	0.442 µM (active)	1.61 µM (inactive)	1.74 µM (inactive)	10.5 µM (inactive)	2.97 µM (inactive)	1.74 µM (inactive)	0.302 µM (active)	2.48 µM (inactive)	3.47 µM (inactive)	–	6.1 µM (inactive)	2.14 µM (inactive)	1.71 µM (inactive)	11.8 µM (inactive)
CC1=C(N2CC2)C(=O)c2ccccc2C1=O	0.566 µM (active)	2.52 µM (inactive)	0.402 µM (active)	0.897 µM (active)	1.22 µM (inactive)	1.37 µM (inactive)	–	0.327 µM (active)	0.164 µM (active)	0.136 µM (active)	1.06 µM (active)	0.811 µM (active)	1.19 µM (inactive)	1.13 µM (inactive)	0.462 µM (active)	0.422 µM (active)	0.312 µM (active)	1.12 µM (inactive)	–	–
CCCCCCn1c(SC)nc(COC(=O)NC)c1COC(=O)NC	16.4 µM (inactive)	19.6 µM (inactive)	19.9 µM (inactive)	15.1 µM (inactive)	21.3 µM (inactive)	17.8 µM (inactive)	22.4 µM (inactive)	19.4 µM (inactive)	16.6 µM (inactive)	13.9 µM (inactive)	25.5 µM (inactive)	14.8 µM (inactive)	> 10 µM (inactive)	18.2 µM (inactive)	14.6 µM (inactive)	–	16.7 µM (inactive)	17.9 µM (inactive)	–	16.3 µM (inactive)
CN1CCN(c2nc3cc(F)ccc3n3cccc23)CC1	36.9 µM (inactive)	39.1 µM (inactive)	51.2 µM (inactive)	28.4 µM (inactive)	18 µM (inactive)	25.5 µM (inactive)	40.6 µM (inactive)	26.6 µM (inactive)	20.6 µM (inactive)	33.7 µM (inactive)	50.7 µM (inactive)	29.4 µM (inactive)	29.8 µM (inactive)	39.2 µM (inactive)	29 µM (inactive)	23.4 µM (inactive)	48.5 µM (inactive)	82.8 µM (inactive)	42.1 µM (inactive)	–
CC(C)COP(C)(=O)C(N)(C(F)(F)F)C(F)(F)F (stereo unspecified)	> 100 µM (inactive)	> 100 µM (inactive)	> 100 µM (inactive)	> 100 µM (inactive)	> 100 µM (inactive)	> 100 µM (inactive)	> 100 µM (inactive)	> 100 µM (inactive)	> 100 µM (inactive)	> 100 µM (inactive)	> 100 µM (inactive)	> 100 µM (inactive)	88.1 µM (inactive)	> 100 µM (inactive)	7.78 µM (inactive)	–	> 100 µM (inactive)	> 100 µM (inactive)	> 100 µM (inactive)	–
Nc1cc(OCC2CCCCC2)nc(N)n1	93.8 µM (inactive)	> 100 µM (inactive)	> 100 µM (inactive)	> 100 µM (inactive)	> 100 µM (inactive)	> 100 µM (inactive)	> 100 µM (inactive)	76.9 µM (inactive)	37.5 µM (inactive)	57.1 µM (inactive)	> 100 µM (inactive)	> 100 µM (inactive)	> 100 µM (inactive)	> 100 µM (inactive)	61.2 µM (inactive)	> 100 µM (inactive)	> 100 µM (inactive)	> 100 µM (inactive)	> 100 µM (inactive)	–
CCOC(=O)c1ccc(-n2cnc(-c3ccc([N+](=O)[O-])cc3)c2)cc1	> 100 µM (inactive)	> 100 µM (inactive)	> 100 µM (inactive)	> 100 µM (inactive)	> 100 µM (inactive)	31.4 µM (inactive)	> 100 µM (inactive)	> 100 µM (inactive)	25.3 µM (inactive)	> 100 µM (inactive)	> 100 µM (inactive)	> 100 µM (inactive)	> 100 µM (inactive)	> 100 µM (inactive)	40.6 µM (inactive)	–	> 100 µM (inactive)	79.8 µM (inactive)	> 100 µM (inactive)	> 100 µM (inactive)
COC(=O)CNC(=O)Nc1cc(N2C(=O)ON3C2C(C)(C)N(O)C3(C)C)ccc1C (stereo unspecified)	> 100 µM (inactive)	–	> 100 µM (inactive)	> 100 µM (inactive)	> 100 µM (inactive)	> 100 µM (inactive)	–	> 100 µM (inactive)	> 100 µM (inactive)	> 100 µM (inactive)	> 100 µM (inactive)	> 100 µM (inactive)	> 100 µM (inactive)	> 100 µM (inactive)	> 100 µM (inactive)	> 100 µM (inactive)	> 100 µM (inactive)	> 100 µM (inactive)	> 100 µM (inactive)	–
O=Cc1ccc2[nH]c(=O)oc2c1	–	99.5 µM (inactive)	> 100 µM (inactive)	> 100 µM (inactive)	> 100 µM (inactive)	> 100 µM (inactive)	> 100 µM (inactive)	> 100 µM (inactive)	–	> 100 µM (inactive)	> 100 µM (inactive)	> 100 µM (inactive)	42.3 µM (inactive)	> 100 µM (inactive)	–	94.8 µM (inactive)	> 100 µM (inactive)	> 100 µM (inactive)	–	> 100 µM (inactive)
O=C(O)CNn1c(SCC(=O)O)nnc(/C=C/c2c(O)ccc3ccccc23)c1=O	44.2 µM (inactive)	9.98 µM (inactive)	28.5 µM (inactive)	77.3 µM (inactive)	17.1 µM (inactive)	28.8 µM (inactive)	29.8 µM (inactive)	35.9 µM (inactive)	18.7 µM (inactive)	14.3 µM (inactive)	15 µM (inactive)	21.3 µM (inactive)	3.57 µM (inactive)	31.6 µM (inactive)	–	–	11.2 µM (inactive)	22.7 µM (inactive)	> 100 µM (inactive)	32.7 µM (inactive)
COC(=O)c1cc2/c(=N/O)c3ccccc3sc2o1	> 100 µM (inactive)	> 100 µM (inactive)	> 100 µM (inactive)	> 100 µM (inactive)	> 100 µM (inactive)	> 100 µM (inactive)	> 100 µM (inactive)	> 100 µM (inactive)	> 100 µM (inactive)	> 100 µM (inactive)	> 100 µM (inactive)	> 100 µM (inactive)	> 100 µM (inactive)	> 100 µM (inactive)	> 100 µM (inactive)	–	> 100 µM (inactive)	> 100 µM (inactive)	> 100 µM (inactive)	> 100 µM (inactive)
